The source made the active and inactive calls. No cut-off for these calls is given here.
What follows are substances tested on Escherichia coli (assay: Antibacterial activity against Escherichia coli assessed as zone of inhibition by measuring activity index after 24 to 48 hrs by well diffusion method relative to ampicillin).
Format: functional, organism-based

Substance	Activity_index
Dimethylstannanediyl bis 2-(4-methoxy-2-nitrophenylcarbamoyl)benzoate	inactive
Diphenylstannanediyl bis 2-(4-methoxy-2-nitrophenylcarbamoyl)benzoate	inactive

The substances below were run on Leishmania major (assay: Antileishmanial activity against Leishmania major promastigotes at 10 uM after 72 hrs by MTT assay relative to control).
Format: functional

Substance	Activity
Dimethylstannanediyl bis 2-(4-methoxy-2-nitrophenylcarbamoyl)benzoate	54.7%
Diphenylstannanediyl bis 2-(4-methoxy-2-nitrophenylcarbamoyl)benzoate	65.5%

The substances below were run on Staphylococcus aureus (assay: Antibacterial activity against Staphylococcus aureus assessed as zone of inhibition after 24 to 48 hrs by well diffusion method).
Format: functional

Substance	inhibition zone (IZ)
Dimethylstannanediyl bis 2-(4-methoxy-2-nitrophenylcarbamoyl)benzoate	13.7 mm
Diphenylstannanediyl bis 2-(4-methoxy-2-nitrophenylcarbamoyl)benzoate	inactive

The substances below were run on Pseudomonas aeruginosa (assay: Antibacterial activity against Pseudomonas aeruginosa assessed as zone of inhibition by measuring activity index after 24 to 48 hrs by well diffusion method relative to amoxicillin).
Format: functional, organism-based

Substance	Activity index
Diphenylstannanediyl bis 2-(4-methoxy-2-nitrophenylcarbamoyl)benzoate	1.67

These substances were tested on Leishmania major (assay: Antileishmanial activity against Leishmania major promastigotes at 1 uM after 72 hrs by MTT assay relative to control).
Format: functional

Substance	Activity
Dimethylstannanediyl bis 2-(4-methoxy-2-nitrophenylcarbamoyl)benzoate	51.6%
Diphenylstannanediyl bis 2-(4-methoxy-2-nitrophenylcarbamoyl)benzoate	60.4%

The substances below were run on Staphylococcus epidermidis (assay: Antibacterial activity against Staphylococcus epidermidis assessed as zone of inhibition by measuring activity index after 24 to 48 hrs by well diffusion method relative to penicillin G).
Format: functional, organism-based

Substance	Activity_index
Diphenylstannanediyl bis 2-(4-methoxy-2-nitrophenylcarbamoyl)benzoate	inactive

Each substance was assayed on Pseudomonas aeruginosa (assay: Antibacterial activity against Pseudomonas aeruginosa assessed as zone of inhibition by measuring activity index after 24 to 48 hrs by well diffusion method relative to penicillin G).
Format: functional, organism-based

Substance	Activity index
Diphenylstannanediyl bis 2-(4-methoxy-2-nitrophenylcarbamoyl)benzoate	1.67

What follows are substances tested on Leishmania major (assay: Antileishmanial activity against Leishmania major promastigotes at 100 uM after 72 hrs by MTT assay relative to control).
Format: functional

Substance	Activity
Dimethylstannanediyl bis 2-(4-methoxy-2-nitrophenylcarbamoyl)benzoate	62.3%
Diphenylstannanediyl bis 2-(4-methoxy-2-nitrophenylcarbamoyl)benzoate	71.2%

What follows are substances tested on Streptococcus pyogenes (assay: Antibacterial activity against Streptococcus pyogenes assessed as zone of inhibition by measuring activity index after 24 to 48 hrs by well diffusion method relative to tetracycline).
Format: functional, organism-based

Substance	Activity_index
Dimethylstannanediyl bis 2-(4-methoxy-2-nitrophenylcarbamoyl)benzoate	inactive

Each substance was assayed on Streptococcus pyogenes (assay: Antibacterial activity against Streptococcus pyogenes assessed as zone of inhibition by measuring activity index after 24 to 48 hrs by well diffusion method relative to ampicillin).
Format: functional, organism-based

Substance	Activity_index
Dimethylstannanediyl bis 2-(4-methoxy-2-nitrophenylcarbamoyl)benzoate	inactive

These substances were tested on Klebsiella pneumoniae (assay: Antibacterial activity against Klebsiella pneumoniae assessed as zone of inhibition by measuring activity index after 24 to 48 hrs by well diffusion method relative to ampicillin).
Format: functional, organism-based

Substance	Activity index
Dimethylstannanediyl bis 2-(4-methoxy-2-nitrophenylcarbamoyl)benzoate	4.2

These substances were tested on Streptococcus pyogenes (assay: Antibacterial activity against Streptococcus pyogenes assessed as zone of inhibition after 24 to 48 hrs by well diffusion method).
Format: functional

Substance	inhibition zone (IZ)
Dimethylstannanediyl bis 2-(4-methoxy-2-nitrophenylcarbamoyl)benzoate	inactive
Diphenylstannanediyl bis 2-(4-methoxy-2-nitrophenylcarbamoyl)benzoate	7.33 mm

These substances were tested on Escherichia coli (assay: Antibacterial activity against Escherichia coli assessed as zone of inhibition by measuring activity index after 24 to 48 hrs by well diffusion method relative to penicillin G).
Format: functional, organism-based

Substance	Activity_index
Dimethylstannanediyl bis 2-(4-methoxy-2-nitrophenylcarbamoyl)benzoate	inactive
Diphenylstannanediyl bis 2-(4-methoxy-2-nitrophenylcarbamoyl)benzoate	inactive

These substances were tested on Pseudomonas aeruginosa (assay: Antibacterial activity against Pseudomonas aeruginosa assessed as zone of inhibition after 24 to 48 hrs by well diffusion method).
Format: functional

Substance	inhibition zone (IZ)
Dimethylstannanediyl bis 2-(4-methoxy-2-nitrophenylcarbamoyl)benzoate	inactive
Diphenylstannanediyl bis 2-(4-methoxy-2-nitrophenylcarbamoyl)benzoate	10 mm

Each substance was assayed on Serratia marcescens (assay: Antibacterial activity against Serratia marcescens assessed as zone of inhibition by measuring activity index after 24 to 48 hrs by well diffusion method relative to tetracycline).
Format: functional, organism-based

Substance	Activity_index
Dimethylstannanediyl bis 2-(4-methoxy-2-nitrophenylcarbamoyl)benzoate	inactive
Diphenylstannanediyl bis 2-(4-methoxy-2-nitrophenylcarbamoyl)benzoate	inactive

Each substance was assayed on NCI-H157 (assay: Cytotoxicity against human NCI-H157 cells at 100 uM after 48 hrs by sulforhodamine B assay).
Format: functional

Substance	Activity
Dimethylstannanediyl bis 2-(4-methoxy-2-nitrophenylcarbamoyl)benzoate	55.6%
Diphenylstannanediyl bis 2-(4-methoxy-2-nitrophenylcarbamoyl)benzoate	73.9%

These substances were tested on Streptococcus pyogenes (assay: Antibacterial activity against Streptococcus pyogenes assessed as zone of inhibition by measuring activity index after 24 to 48 hrs by well diffusion method relative to amoxicillin).
Format: functional, organism-based

Substance	Activity_index
Dimethylstannanediyl bis 2-(4-methoxy-2-nitrophenylcarbamoyl)benzoate	inactive

Each substance was assayed on Staphylococcus aureus (assay: Antibacterial activity against Staphylococcus aureus assessed as zone of inhibition by measuring activity index after 24 to 48 hrs by well diffusion method relative to ampicillin).
Format: functional, organism-based

Substance	Activity_index
Diphenylstannanediyl bis 2-(4-methoxy-2-nitrophenylcarbamoyl)benzoate	inactive

What follows are substances tested on Staphylococcus aureus (assay: Antibacterial activity against Staphylococcus aureus assessed as zone of inhibition by measuring activity index after 24 to 48 hrs by well diffusion method relative to penicillin G).
Format: functional, organism-based

Substance	Activity_index
Diphenylstannanediyl bis 2-(4-methoxy-2-nitrophenylcarbamoyl)benzoate	inactive

The substances below were run on Staphylococcus epidermidis (assay: Antibacterial activity against Staphylococcus epidermidis assessed as zone of inhibition after 24 to 48 hrs by well diffusion method).
Format: functional

Substance	inhibition zone (IZ)
Dimethylstannanediyl bis 2-(4-methoxy-2-nitrophenylcarbamoyl)benzoate	13.3 mm
Diphenylstannanediyl bis 2-(4-methoxy-2-nitrophenylcarbamoyl)benzoate	inactive

The substances below were run on Staphylococcus epidermidis (assay: Antibacterial activity against Staphylococcus epidermidis assessed as zone of inhibition by measuring activity index after 24 to 48 hrs by well diffusion method relative to tetracycline).
Format: functional, organism-based

Substance	Activity index
Dimethylstannanediyl bis 2-(4-methoxy-2-nitrophenylcarbamoyl)benzoate	1.33

The substances below were run on Escherichia coli (assay: Antibacterial activity against Escherichia coli assessed as zone of inhibition by measuring activity index after 24 to 48 hrs by well diffusion method relative to tetracycline).
Format: functional

Substance	Activity index
Dimethylstannanediyl bis 2-(4-methoxy-2-nitrophenylcarbamoyl)benzoate	0.88

The substances below were run on Leishmania major (assay: Antileishmanial activity against Leishmania major promastigotes at 0.1 uM after 72 hrs by MTT assay relative to control).
Format: functional

Substance	Activity
Dimethylstannanediyl bis 2-(4-methoxy-2-nitrophenylcarbamoyl)benzoate	48.4%
Diphenylstannanediyl bis 2-(4-methoxy-2-nitrophenylcarbamoyl)benzoate	56.6%

These substances were tested on NCI-H157 (assay: Cytotoxicity against human NCI-H157 cells after 48 hrs by sulforhodamine B assay).
Format: functional, cell-based

Substance	Activity
Dimethylstannanediyl bis 2-(4-methoxy-2-nitrophenylcarbamoyl)benzoate	Dose-dependent effect
Diphenylstannanediyl bis 2-(4-methoxy-2-nitrophenylcarbamoyl)benzoate	Dose-dependent effect

The substances below were run on Pseudomonas aeruginosa (assay: Antibacterial activity against Pseudomonas aeruginosa assessed as zone of inhibition by measuring activity index after 24 to 48 hrs by well diffusion method relative to tetracycline).
Format: functional, organism-based

Substance	Activity index
Diphenylstannanediyl bis 2-(4-methoxy-2-nitrophenylcarbamoyl)benzoate	1.67

These substances were tested on Klebsiella pneumoniae (assay: Antibacterial activity against Klebsiella pneumoniae assessed as zone of inhibition by measuring activity index after 24 to 48 hrs by well diffusion method relative to penicillin G).
Format: functional, organism-based

Substance	Activity_index
Diphenylstannanediyl bis 2-(4-methoxy-2-nitrophenylcarbamoyl)benzoate	inactive

These substances were tested on Serratia marcescens (assay: Antibacterial activity against Serratia marcescens assessed as zone of inhibition after 24 to 48 hrs by well diffusion method).
Format: functional

Substance	inhibition zone (IZ)
Dimethylstannanediyl bis 2-(4-methoxy-2-nitrophenylcarbamoyl)benzoate	inactive
Diphenylstannanediyl bis 2-(4-methoxy-2-nitrophenylcarbamoyl)benzoate	inactive

These substances were tested on Escherichia coli (assay: Antibacterial activity against Escherichia coli assessed as zone of inhibition after 24 to 48 hrs by well diffusion method).
Format: functional

Substance	inhibition zone (IZ)
Dimethylstannanediyl bis 2-(4-methoxy-2-nitrophenylcarbamoyl)benzoate	1.77 mm
Diphenylstannanediyl bis 2-(4-methoxy-2-nitrophenylcarbamoyl)benzoate	inactive

These substances were tested on Escherichia coli (assay: Antibacterial activity against Escherichia coli assessed as zone of inhibition by measuring activity index after 24 to 48 hrs by well diffusion method relative to amoxicillin).
Format: functional, organism-based

Substance	Activity_index
Dimethylstannanediyl bis 2-(4-methoxy-2-nitrophenylcarbamoyl)benzoate	inactive
Diphenylstannanediyl bis 2-(4-methoxy-2-nitrophenylcarbamoyl)benzoate	inactive

Each substance was assayed on NCI-H157 (assay: Cytotoxicity against human NCI-H157 cells at 10 uM after 48 hrs by sulforhodamine B assay).
Format: functional

Substance	Activity
Dimethylstannanediyl bis 2-(4-methoxy-2-nitrophenylcarbamoyl)benzoate	53.4%
Diphenylstannanediyl bis 2-(4-methoxy-2-nitrophenylcarbamoyl)benzoate	67.1%

The substances below were run on Staphylococcus aureus (assay: Antibacterial activity against Staphylococcus aureus assessed as zone of inhibition by measuring activity index after 24 to 48 hrs by well diffusion method relative to amoxicillin).
Format: functional, organism-based

Substance	Activity_index
Diphenylstannanediyl bis 2-(4-methoxy-2-nitrophenylcarbamoyl)benzoate	inactive

These substances were tested on Klebsiella pneumoniae (assay: Antibacterial activity against Klebsiella pneumoniae assessed as zone of inhibition after 24 to 48 hrs by well diffusion method).
Format: functional

Substance	inhibition zone (IZ)
Dimethylstannanediyl bis 2-(4-methoxy-2-nitrophenylcarbamoyl)benzoate	25.2 mm
Diphenylstannanediyl bis 2-(4-methoxy-2-nitrophenylcarbamoyl)benzoate	inactive

These substances were tested on Staphylococcus epidermidis (assay: Antibacterial activity against Staphylococcus epidermidis assessed as zone of inhibition by measuring activity index after 24 to 48 hrs by well diffusion method relative to amoxicillin).
Format: functional, organism-based

Substance	Activity index
Dimethylstannanediyl bis 2-(4-methoxy-2-nitrophenylcarbamoyl)benzoate	6.65

What follows are substances tested on Pseudomonas aeruginosa (assay: Antibacterial activity against Pseudomonas aeruginosa assessed as zone of inhibition by measuring activity index after 24 to 48 hrs by well diffusion method relative to ampicillin).
Format: functional, organism-based

Substance	Activity_index
Dimethylstannanediyl bis 2-(4-methoxy-2-nitrophenylcarbamoyl)benzoate	inactive

Each substance was assayed on Staphylococcus epidermidis (assay: Antibacterial activity against Staphylococcus epidermidis assessed as zone of inhibition by measuring activity index after 24 to 48 hrs by well diffusion method relative to ampicillin).
Format: functional, organism-based

Substance	Activity_index
Diphenylstannanediyl bis 2-(4-methoxy-2-nitrophenylcarbamoyl)benzoate	inactive

The substances below were run on NCI-H157 (assay: Cytotoxicity against human NCI-H157 cells at 1 uM after 48 hrs by sulforhodamine B assay).
Format: functional

Substance	Activity
Dimethylstannanediyl bis 2-(4-methoxy-2-nitrophenylcarbamoyl)benzoate	51.2%
Diphenylstannanediyl bis 2-(4-methoxy-2-nitrophenylcarbamoyl)benzoate	59.6%

The substances below were run on Klebsiella pneumoniae (assay: Antibacterial activity against Klebsiella pneumoniae assessed as zone of inhibition by measuring activity index after 24 to 48 hrs by well diffusion method relative to tetracycline).
Format: functional, organism-based

Substance	Activity index
Dimethylstannanediyl bis 2-(4-methoxy-2-nitrophenylcarbamoyl)benzoate	1.8

The substances below were run on Klebsiella pneumoniae (assay: Antibacterial activity against Klebsiella pneumoniae assessed as zone of inhibition by measuring activity index after 24 to 48 hrs by well diffusion method relative to amoxicillin).
Format: functional, organism-based

Substance	Activity index
Dimethylstannanediyl bis 2-(4-methoxy-2-nitrophenylcarbamoyl)benzoate	4.2

What follows are substances tested on Staphylococcus aureus (assay: Antibacterial activity against Staphylococcus aureus assessed as zone of inhibition by measuring activity index after 24 to 48 hrs by well diffusion method relative to tetracycline).
Format: functional, organism-based

Substance	Activity_index
Diphenylstannanediyl bis 2-(4-methoxy-2-nitrophenylcarbamoyl)benzoate	inactive

What follows are substances tested on NCI-H157 (assay: Cytotoxicity against human NCI-H157 cells at 0.1 uM after 48 hrs by sulforhodamine B assay).
Format: functional

Substance	Activity
Dimethylstannanediyl bis 2-(4-methoxy-2-nitrophenylcarbamoyl)benzoate	48.9%
Diphenylstannanediyl bis 2-(4-methoxy-2-nitrophenylcarbamoyl)benzoate	55.5%

These substances were tested on Streptococcus pyogenes (assay: Antibacterial activity against Streptococcus pyogenes assessed as zone of inhibition by measuring activity index after 24 to 48 hrs by well diffusion method relative to penicillin G).
Format: functional, organism-based

Substance	Activity_index
Dimethylstannanediyl bis 2-(4-methoxy-2-nitrophenylcarbamoyl)benzoate	inactive
